Measured values from patent US20210317071A1, “PH-RESPONSIVE LIPIDS” (University of KwaZulu-Natal, priority 2016, published 2021).
Converted amounts (≈) assume the structure as drawn. Like-named read-outs stand apart in the source and are kept apart here.

Columns and labels:
[1] = system: Methicillin-resistant Staphylococcus aureus (MRSA); test: In-vitro antibacterial activity, MIC by broth dilution; type: cell-based
Method: (§1) The minimum inhibitory concentration (MIC) values for VCM loaded liposomes were determined against Staphylococcus aureus (SA) and Methicillin-resistant Staphylococcus aureus (MRSA) using broth dilution method (Materials Science and Engineering: C, Volume 61, 2016, Pages 616-630). The stock bacterial cultures were grown in Mueller-Hinton Broth (MHB) 24 h before the test at 37° C.
(§2) Bacterial suspensions were prepared equal to 1.5×10^8 CFU ml^−1 as half mcFarland. Serial dilutions of VCM loaded liposomal formulations were prepared in MHB broth then added to the bacterial culture, mixed properly and incubated at 37° C. for 24 hours. […] The study continued for four days to determine the sustained release activity of encapsulated VCM. Experiments were performed in triplicate and drug-free liposomes, bare VCM solution and VCM loaded liposomes without Ph-responsive lipid were used as controls.

[2] = system: Staphylococcus aureus (SA); test: as above; type: cell-based; details: S. aureus
Method: as §1, §2

[3] = In-vitro VCM release from liposomes as a function of pH; type: physicochemical
Method: In-vitro drug release of VCM from the pH-responsive liposomes of the invention is illustrated in FIG. 6. At all-time intervals, VCM release at acidic pH (6.5) was higher than at physiological pH of 7.4. […] For further confirmation, the mean dissolution time (MDT 90%) for 90% of drug release was calculated from in-vitro release data. […] The MDT value is inversely proportional to the release rate, i.e. lower the MDT higher the release rate and vice versa. […] The higher drug release rate at the acidic environment from liposomes can be attributed to the alteration in the lipid bilayer orientation and permeability caused by conformational changes at the head group and hydrophobic tails of the PH-responsive lipid at low pH.

[4] = system: shaved rat skin; type: in vitro ADME, Wistar rats
From the text: All the experiments performed using animals were approved by Animal Research Ethics committee of the University of KwaZulu-Natal. In vivo study, the protocol was approved by Animal Research Ethics committee of the University of KwaZulu-Natal. The protocol approval numbers for in vivo skin infection model and transdermal permeation studies were AREC/104/015PD and AREC/054/14/Animal respectively. BALB/c mice and Wistar rats were used for in vivo skin infection model and transdermal permeation study respectively. Animals used in the study were procured from Biomedical Resource Unit of University of KwaZulu-Natal, Westville, Durban, South Africa.
All the intermediate, ester derivatives (MSAPE, MOAPE, MLAPE, MLLAPE, DSAPE, DOAPE, DLAPE, DLLAPE, TSAPE, TOAPE, TLAPE and TLLAPE) were evaluated as potential CPEs for transdermal drug delivery using tenofovir (TNF) as a model drug. The experiments were performed on shaved rat skin using Franz diffusion cells. TNF gels were prepared using hydroxypropyl methyl cellulose, milli-Q water and 1% w/w of compounds of formula 1. The permeability of TNF in the absence of enhancers was performed as a control. […] TNF was able to permeate the skin without any permeation enhancer with a steady state flux value 040.91±04.93 μg cm^−2 h^−1 (Table 6).

[5] = both pH values, study over four days
[6] = pH 6.5, DAY - I (24 h), listed as bare VCM
[7] = pH 7.4, DAY - I (24 h), listed as bare VCM

Row | Structure (SMILES) | Cumulative amount of TNF permeated ([4]; Wistar, rat, 6 h, 1 % w/w) | ER (enhancement ratio) ([4]; Wistar, rat, 6 h, 1 % w/w) | Permeability (P × 10^−2) of TNF ([4]; Wistar, rat, 6 h, 1 % w/w) | also measured
1 | CN[C@H](CC(C)C)C(=O)N[C@H]1C(=O)N[C@@H](CC(N)=O)C(=O)N[C@H]2C(=O)N[C@H]3C(=O)N[C@H](C(=O)N[C@H](C(=O)O)c4cc(O)cc(O)c4-c4cc3ccc4O)[C@H](O)c3ccc(c(Cl)c3)Oc3cc2cc(c3O[C@@H]2O[C@H](CO)[C@@H](O)[C@H](O)[C@H]2O[C@H]2C[C@](C)(N)[C@H](O)[C@H](C)O2)Oc2ccc(cc2Cl)[C@H]1O [Bare VCM, Vancomycin] | – | – | – | time up to which antibacterial activity was exhibited [1, 5]: ≤ 24 h; MIC ([1]; pH 6.5, DAY - I (24 h)): 15.62 µg/mL (≈ 10.8 µM); MIC [1, 6]: 0.98 µg/mL (≈ 0.676 µM); MIC ([1]; pH 7.4, DAY - I (24 h)): 7.81 µg/mL (≈ 5.39 µM); MIC [1, 7]: 0.98 µg/mL (≈ 0.676 µM); time up to which antibacterial activity was exhibited [2, 5]: ≤ 24 h; MIC ([2]; pH 6.5, DAY - I (24 h)): 7.81 µg/mL (≈ 5.39 µM); MIC [2, 6]: 1.95 µg/mL (≈ 1.35 µM); MIC ([2]; pH 7.4, DAY - I (24 h)): 3.91 µg/mL (≈ 2.7 µM); MIC [2, 7]: 8.79 µg/mL (≈ 6.07 µM); MDT90% Mean dissolution time calculated for 90% of VCM release ([3]; pH 5.5): 6.064 h; MDT90% Mean dissolution time calculated for 90% of VCM release ([3]; pH 6.5): 4.173 h; MDT90% Mean dissolution time calculated for 90% of VCM release ([3]; pH 7.4): 2.690 h
2 | CCCCC/C=C\C/C=C\CCCCCCCC(=O)OCC(COC(=O)CCCCCCC/C=C\C/C=C\CCCCC)NCCC(=O)OC(C)(C)C [DLAPE, 2-((3-(tert-butoxy)-3-oxopropyl)amino)propane-1,3-diyl (9Z,9′Z,12Z,12′Z)-bis(octadeca-9,12-dienoate)] | 1074.62 ± 61.12 μg cm^−2 | 3.95 | 0.809 ± 0.05 | –
3 | CC/C=C\C/C=C\C/C=C\CCCCCCCC(=O)OCC(COC(=O)CCCCCCC/C=C\C/C=C\C/C=C\CC)NCCC(=O)OC(C)(C)C [DLLAPE, 2-((3-(tert-butoxy)-3-oxopropyl)amino)propane-1,3-diyl (9Z,9′Z,12Z,12′Z,15Z,15′Z)-bis(octadeca-9,12,15-trienoate)] | 400.37 ± 18.92 μg cm^−2 | 1.65 | 0.337 ± 0.01 | –
4 | CCCCCCCC/C=C\CCCCCCCC(=O)OCC(COC(=O)CCCCCCC/C=C\CCCCCCCC)NCCC(=O)OC(C)(C)C [DOAPE, 2-((3-(tert-butoxy)-3-oxopropyl)amino)propane-1,3-diyl dioleate] | 424.95 ± 59.84 μg cm^−2 | 1.71 | 0.350 ± 0.05 | –
5 | CCCCCCCCCCCCCCCCCC(=O)OCC(COC(=O)CCCCCCCCCCCCCCCCC)NCCC(=O)OC(C)(C)C [DSAPE, 2-((3-(tert-butoxy)-3-oxopropyl)amino)propane-1,3-diyl distearate] | 336.1 ± 25.67 μg cm^−2 | 1.40 | 0.286 ± 0.02 | –
6 | CCCCC/C=C\C/C=C\CCCCCCCC(=O)OCCNCCC(=O)OC(C)(C)C [MLAPE, 2-((3-(tert-butoxy)-3-oxopropyl)amino)ethyl (9Z,12Z)-octadeca-9,12-dienoate] | 574.97 ± 74.09 μg cm^−2 | 2.25 | 0.460 ± 0.06 | –
7 | CC/C=C\C/C=C\C/C=C\CCCCCCCC(=O)OCCNCCC(=O)OC(C)(C)C [MLLAPE, 2-((3-(tert-butoxy)-3-oxopropyl)amino)ethyl (9Z,12Z,15Z)-octadeca-9,12,15-trienoate] | 945.88 ± 44.93 μg cm^−2 | 3.70 | 0.758 ± 0.04 | –
8 | CCCCCCCC/C=C\CCCCCCCC(=O)OCCNCCC(=O)OC(C)(C)C [MOAPE, 2-((3-(tert-butoxy)-3-oxopropyl)amino)ethyl oleate] | 1594.06 ± 198.92 μg cm^−2 | 5.58 | 1.142 ± 0.16 | –
9 | CCCCCCCCCCCCCCCCCC(=O)OCCNCCC(=O)OC(C)(C)C [MSAPE, 2-((3-(tert-butoxy)-3-oxopropyl)amino)ethyl stearate] | 407.12 ± 66.51 μg cm^−2 | 1.55 | 0.317 ± 0.06 | –
10 | C[C@H](Cn1cnc2c(N)ncnc21)OCP(=O)(O)O [TNF, tenofovir, reference compound] | – | – | – | Cumulative amount of TNF permeated [4]: 253.10±23.84 μg cm^−2
11 | CCCCCCCC/C=C/CCCCCCCC(=O)OCC(COC(=O)CCCCCCC/C=C/CCCCCCCC)(COC(=O)CCCCCCC/C=C/CCCCCCCC)NCCC(=O)OC(C)(C)C [TOAPE, 2-((3-(tert-butoxy)-3-oxopropyl)amino)-2-((((Z)-octadec-9-enoyl)oxy)methyl)propane-1,3-diyl(9Z,9′Z)-bis(octadec-9-enoate)] | 342.3 ± 26.94 μg cm^−2 | 1.50 | 0.306 ± 0.02 | –
12 | CCCCCCCCCCCCCCCCCC(=O)OCC(COC(=O)CCCCCCCCCCCCCCCCC)(COC(=O)CCCCCCCCCCCCCCCCC)NCCC(=O)OC(C)(C)C [TSAPE, 2-((3-(tert-butoxy)-3-oxopropyl)amino)-2-((stearoyloxy)methyl) propane-1,3-diyl distearate] | 531.70 ± 23.87 μg cm^−2 | 2.09 | 0.428 ± 0.02 | –
